Five compounds from ChEMBL document CHEMBL1150664, “New bioactive peroxides from marine sponges of the family plakiniidae” (2002) can be followed below.

One experiment deals with Candida albicans. Nature of the experiment: Antimicrobial activity against Candida albicans by standard microdilution broth method. The class given is functional.
Another experiment has as its system Aspergillus fumigatus. Nature of the experiment: Antimicrobial activity against Aspergillus fumigatus by standard microdilution broth method. The experiment is classed as functional. On the technique in general: In broth dilution the organism is exposed to a series of concentrations in liquid medium.

In brackets after ≈: the same amount, converted by molar mass.

By MIC is commonly meant the smallest concentration in the dilution series that meets the test's criterion for growth inhibition. A low value points to a more susceptible organism. Regarding `Nc1nc(=O)[nH]cc1F` [FLUCYTOSINE], the minimum inhibitory concentration (MIC) in the experiment with Candida albicans came to 1.62 mg/L (≈ 12.5 µM).

Usually IC90 stands for the concentration at which the effect reaches the 90% level. For the compound `C[C@@H]1[C@H](O)[C@@H](C)/C=C/C=C/C=C/C=C/C=C/C=C/C=C/[C@H](O[C@@H]2O[C@H](C)[C@@H](O)[C@H](N)[C@@H]2O)C[C@@H]2O[C@](O)(C[C@@H](O)C[C@@H](O)[C@H](O)CC[C@@H](O)C[C@@H](O)CC(=O)O[C@H]1C)C[C@H](O)[C@H]2C(=O)O` [AMPHOTERICIN B], in the experiment on Aspergillus fumigatus, the 90% effect level (IC90) was put at 1 mg/L (≈ 1.08 µM).

The compound `CC/C=C/C(CC)C/C=C/[C@@]1(CC)C[C@H](CC)[C@@H](CC(=O)O)OO1` (stereo partly specified) had a 90% effect concentration (IC90) with Aspergillus fumigatus of 5.6 mg/L (≈ 16.5 µM). The lowest concentration to inhibit growth against Candida albicans (MIC) was 5 mg/L (≈ 14.8 µM).

`CC(CCCCCCC/C=C/C=C/c1ccccc1)C[C@]1(C)C[C@](C)(CC(=O)O)OO1` (relative stereo) showed a minimal inhibitory concentration (MIC) in the experiment on Candida albicans of 1.6 mg/L (≈ 3.73 µM).

Consider `CC(CCCCCCC/C=C/C=C/c1ccccc1)C[C@]1(C)C[C@@](C)(CC(=O)O)OO1` (relative stereo), for which the MIC with Candida albicans stood at 1.6 mg/L (≈ 3.73 µM).
